Measured values published in ChEMBL document CHEMBL3885881, “DrugMatrix”.

Species: Rattus norvegicus
Assay: DrugMatrix - Regimen: Daily Repeat
Format: toxicity, organism-based, Sprague-Dawley
Set-up: regimen Daily Repeat, gender Male, age 6-8 weeks
Settings: in vivo, sc, route mini-PUMP - SUBCUTANEOUS, vehicle 100 % SALINE
[1] = 2 mg/kg, 72 h, tissue Blood, dose level High, time 3 day
[2] = 2 mg/kg, 72 h, tissue Plasma, dose level High, time 3 day
[3] = 2 mg/kg, 120 h, tissue Blood, dose level High, time 5 day
[4] = 2 mg/kg, 120 h, tissue Plasma, dose level High, time 5 day
[5] = 2 mg/kg, […], tissue Blood, dose level High, time 14 day
[6] = 2 mg/kg, […], tissue Plasma, dose level High, time 14 day

## CC(C)NCC(O)c1ccc(O)c(O)c1 (centres undefined) [ISOPROTERENOL]
0 mg/kg, […], tissue Blood, dose level Control, time 14 day
  NUCLEATED RED BLOOD CELLS: 0.17 /100WBC
0 mg/kg, […], tissue Plasma, dose level Control, time 14 day
  CREATINE PHOSPHOKINASE: 262 u/L
[1]
  ABSOLUTE BASOPHIL: 95 cells/µL
  ABSOLUTE EOSINOPHIL: 95 cells/µL
  ABSOLUTE LYMPHOCYTE: 13000 cells/µL
  ABSOLUTE MONOCYTE: 420 cells/µL
  BASOPHIL: 0.5%
  EOSINOPHIL: 0.55%
  ERYTHROCYTE COUNT: 6.36 x10E6/uL
  HEMATOCRIT: 43.4%
  HEMOGLOBIN: 13 G/DL
  LEUKOCYTE COUNT: 17.82 x10E3/uL
  LYMPHOCYTE: 73.55%
  MEAN CORPUSCULAR HEMOGLOBIN: 20.5 pg
  MEAN CORPUSCULAR HEMOGLOBIN CONCENTRATION: 30.05 G/DL
  MEAN CORPUSCULAR VOLUME: 68.3 fL
  MONOCYTE: 2.35%
  NEUTROPHIL: 22.05%
  PLATELET COUNT: 1170.5 x10E3/uL
[2]
  ALANINE AMINOTRANSFERASE: 32 u/L
  ALBUMIN: 3.9 G/DL
  ALKALINE PHOSPHATASE: 349 u/L
  ASPARTATE AMINOTRANSFERASE: 75.5 u/L
  BLOOD UREA NITROGEN: 17 mg/dL
  CARBON DIOXIDE: 40.5 mmol/L
  CHLORIDE: 107 MEQ/L
  CHOLESTEROL: 87.5 mg/dL
  CREATINE PHOSPHOKINASE: 449.5 u/L
  CREATININE: 0.55 mg/dL
  GLUCOSE: 141 mg/dL
  LIPASE: 47.5 u/L
  PHOSPHORUS: 9.6 mg/dL
  POTASSIUM: 6.05 MEQ/L
  SODIUM: 150.5 MEQ/L
  TOTAL BILIRUBIN: 0.3 mg/dL
  TOTAL PROTEIN: 6.25 G/DL
  URIC ACID: 0.8 mg/dL
[3]
  ABSOLUTE BASOPHIL: 50 cells/µL
  ABSOLUTE EOSINOPHIL: 110 cells/µL
  ABSOLUTE LYMPHOCYTE: 10400 cells/µL
  ABSOLUTE MONOCYTE: 350 cells/µL
  BASOPHIL: 0.37%
  EOSINOPHIL: 0.83%
  ERYTHROCYTE COUNT: 6.25 x10E6/uL
  HEMATOCRIT: 42.73%
  HEMOGLOBIN: 12.9 G/DL
  LEUKOCYTE COUNT: 14.26 x10E3/uL
  LYMPHOCYTE: 72.93%
  MEAN CORPUSCULAR HEMOGLOBIN: 20.63 pg
  MEAN CORPUSCULAR HEMOGLOBIN CONCENTRATION: 30.17 G/DL
  MEAN CORPUSCULAR VOLUME: 68.4 fL
  MONOCYTE: 2.5%
  NEUTROPHIL: 22.8%
  PLATELET COUNT: 1375.33 x10E3/uL
[4]
  ALANINE AMINOTRANSFERASE: 41.67 u/L
  ALBUMIN: 3.77 G/DL
  ALKALINE PHOSPHATASE: 331.33 u/L
  ASPARTATE AMINOTRANSFERASE: 78 u/L
  BLOOD UREA NITROGEN: 15.33 mg/dL
  CARBON DIOXIDE: 39.67 mmol/L
  CHLORIDE: 108 MEQ/L
  CHOLESTEROL: 85.67 mg/dL
  CREATINE PHOSPHOKINASE: 183 u/L
  CREATININE: 0.57 mg/dL
  GLUCOSE: 168.33 mg/dL
  LIPASE: 99 u/L
  PHOSPHORUS: 10.23 mg/dL
  POTASSIUM: 5.97 MEQ/L
  SODIUM: 150 MEQ/L
  TOTAL BILIRUBIN: 0.33 mg/dL
  TOTAL PROTEIN: 6.03 G/DL
  URIC ACID: 1 mg/dL
[5]
  ABSOLUTE BASOPHIL: 60 cells/µL
  ABSOLUTE EOSINOPHIL: 110 cells/µL
  ABSOLUTE LYMPHOCYTE: 11600 cells/µL
  ABSOLUTE MONOCYTE: 300 cells/µL
  BASOPHIL: 0.42%
  EOSINOPHIL: 0.72%
  ERYTHROCYTE COUNT: 6.69 x10E6/uL
  HEMATOCRIT: 44.4%
  HEMOGLOBIN: 14.28 G/DL
  LEUKOCYTE COUNT: 14.87 x10E3/uL
  LYMPHOCYTE: 78.08%
  MEAN CORPUSCULAR HEMOGLOBIN: 21.3 pg
  MEAN CORPUSCULAR HEMOGLOBIN CONCENTRATION: 32.12 G/DL
  MEAN CORPUSCULAR VOLUME: 66.4 fL
  MONOCYTE: 1.94%
  NEUTROPHIL: 18.22%
  PLATELET COUNT: 1074.6 x10E3/uL
[6]
  ALANINE AMINOTRANSFERASE: 40.6 u/L
  ALBUMIN: 4 G/DL
  ALKALINE PHOSPHATASE: 424.4 u/L
  ASPARTATE AMINOTRANSFERASE: 98.2 u/L
  BLOOD UREA NITROGEN: 19.2 mg/dL
  CARBON DIOXIDE: 38.8 mmol/L
  CHLORIDE: 105.8 MEQ/L
  CHOLESTEROL: 73.4 mg/dL
  CREATINE PHOSPHOKINASE: 274.2 u/L
  CREATININE: 0.8 mg/dL
  GLUCOSE: 132 mg/dL
  LACTATE DEHYDROGENASE: 214.4 u/L
  LIPASE: 11.8 u/L
  PHOSPHORUS: 9.98 mg/dL
  POTASSIUM: 6.02 MEQ/L
  SODIUM: 149.2 MEQ/L
  TOTAL BILIRUBIN: 0.36 mg/dL
  TOTAL PROTEIN: 6.46 G/DL
  URIC ACID: 0.62 mg/dL
[…], 72 h, tissue Blood, dose 4.2 mg/Kg, dose level M1, time 3 day
  ABSOLUTE BASOPHIL: 0 CELLS/uL
